Test results from US11142515B2, “Pyrazolyl-ureas as kinase inhibitors” (RESPIVERT LIMITED, priority 2014, dated 2021).

Columns and labels:
[1] = molecular target: T1, p38 MAPKα isoform (MAPK14) (Homo sapiens, UniProt Q16539); assay: p38 MAPKα enzyme inhibition (Z-LYTE FRET); assay type: biochemical; settings: Table 2B, unit inferred; read-out: p38 MAPKα (Enzyme Profile)
T1 construct: purchased Life Technologies
In short: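 Activity was measured indirectly as phosphorylation of a MAPKAP-K2-derived FRET peptide. Enzyme (added at 40 ng/mL) was preincubated 2 h at RT with compound (added solutions 40–0.0012 μg/mL).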

p38MAPKγ (MAPK12) = molecular target: T2, p38MAPKγ (MAPK12) (Homo sapiens, UniProt P53778); assay: p38 MAPKγ enzyme inhibition (Z-LYTE FRET); assay type: biochemical; settings: Table 2B, unit inferred; read-out: p38 MAPKγ (Enzyme Profile)
T2 construct: purchased Life Technologies
T2 sequence (P53778 1-367): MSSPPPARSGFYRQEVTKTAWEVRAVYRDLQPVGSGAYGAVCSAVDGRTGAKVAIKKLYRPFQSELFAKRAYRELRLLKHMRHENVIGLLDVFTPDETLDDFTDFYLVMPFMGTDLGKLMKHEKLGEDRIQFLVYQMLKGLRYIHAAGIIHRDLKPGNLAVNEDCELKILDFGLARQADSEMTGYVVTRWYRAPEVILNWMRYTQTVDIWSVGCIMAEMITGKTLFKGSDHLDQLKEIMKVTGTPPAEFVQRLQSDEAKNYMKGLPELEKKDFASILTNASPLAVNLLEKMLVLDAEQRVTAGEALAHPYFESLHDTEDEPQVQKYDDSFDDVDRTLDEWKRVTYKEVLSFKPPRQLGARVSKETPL
In short: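 Enzyme (added at 800 ng/mL) was preincubated 2 h at RT with compound (solutions of 40 to 0.0012 μg/mL), then FRET peptide (8 μM) and ATP (400 μM), both as added, were reacted 1 h at RT. Protease development followed for 1 h; phosphorylation was read as the coumarin/fluorescein emission ratio.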

T1 sequence (Q16539 whole entry, canonical isoform): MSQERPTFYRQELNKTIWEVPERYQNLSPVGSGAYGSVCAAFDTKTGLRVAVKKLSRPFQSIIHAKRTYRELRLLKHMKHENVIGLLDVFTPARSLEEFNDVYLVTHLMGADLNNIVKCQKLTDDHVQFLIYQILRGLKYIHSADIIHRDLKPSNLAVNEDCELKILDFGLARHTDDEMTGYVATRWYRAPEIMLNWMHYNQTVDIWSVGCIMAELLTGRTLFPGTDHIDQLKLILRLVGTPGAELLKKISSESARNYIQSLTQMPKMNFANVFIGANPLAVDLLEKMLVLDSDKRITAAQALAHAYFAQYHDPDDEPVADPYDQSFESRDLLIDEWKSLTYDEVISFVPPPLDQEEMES

Row | IC50 [1] | IC50 (p38MAPKγ (MAPK12)) | Structure (SMILES)
1 | 3 nM | 46 nM | Cc1ccc(-n2nc(C(C)(C)C)cc2NC(=O)Nc2ccc(OCc3ccnc(Nc4cnc(C(=O)N5CCN(C)C(=O)C5)cn4)c3)c3ccccc23)cc1 [Example 244, 1-(3-(tert-butyl)-1-(p-tolyl)-1H-pyrazol-5-yl)-3-(4-((2-((5-(4-methyl-3-oxopipera-zine-1-carbonyl)pyrazin-2-yl)amino)pyridin-4-yl)methoxy)naphthalen-1-yl) urea]
2 | 14 nM | 130 nM | CO[C@@H]1CCCN(C(=O)c2cnc(Nc3cc(COc4ccc(NC(=O)Nc5cc(C(C)(C)C)nn5-c5ccc(C)cc5)c5ccccc45)ccn3)cn2)C1 [Example 239, (R)-1-(3-(tert-butyl)-1-(p-tolyl)-1H-pyrazol-5-yl)-3-(4-((2-((5-(3-methoxy-piperidine-1-carbonyl)pyrazin-2-yl)amino)pyridin-4-yl)methoxy)naphthalen-1-yl)urea]
3 | 65 nM | > 14000 nM | Cc1ccc(-n2nc(C(C)(C)C)cc2NC(=O)Nc2ccc(OCc3ccnc(Nc4cnc(C(=O)N5CCCC5)cn4)c3)c3ccccc23)cc1F [Example 235, 1-(3-(tert-butyl)-1-(3-fluoro-4-methylphenyl)-1H-pyrazol-5-yl)-3-(4-((2-((5-(pyrrolidine-1-carbonyl)pyrazin-2-yl)amino)pyridin-4-yl)methoxy)naphthalen-1-yl)urea]
4 | 8.9 nM | 223 nM | COc1ccc(-n2nc(C(C)(C)C)cc2NC(=O)Nc2ccc(OCc3ccnc(Nc4cncc(N(C)C)n4)c3)c3ccccc23)cc1 [Example 104, 1-(3-(tert-butyl)-1-(4-methoxyphenyl)-1H-pyrazol-5-yl)-3-(4-((2-((6-(dimethyl-amino)pyrazin-2-yl)amino)pyridin-4-yl)methoxy)naphthalen-1-yl)urea]
5 | 34 nM | 1200 nM | CCc1cncc(Nc2cc(COc3ccc(NC(=O)Nc4cc(C(C)(C)C)nn4-c4ccc(OC)c(F)c4)c4ccccc34)ccn2)n1 [Example 168, 1-(3-(tert-butyl)-1-(3-fluoro-4-methoxyphenyl)-1H-pyrazol-5-yl)-3-(4-((2-((6-ethylpyrazin-2-yl)amino)pyridin-4-yl)methoxy)naphthalen-1-yl)urea]
6 | 53 nM | 1110 nM | CCc1ncc(Nc2cc(COc3ccc(NC(=O)Nc4cc(C(C)(C)C)nn4-c4ccc(C)cc4)c4ccccc34)ccn2)nc1CC [Example 139, 1-(3-(tert-butyl)-1-(p-tolyl)-1H-pyrazol-5-yl)-3-(4-((2-((5,6-diethylpyrazin-2-yl)amino)pyridin-4-yl)methoxy)naphthalen-1-yl) urea]
7 | 132 nM | 624 nM | Cc1ccc(-n2nc(C(C)(C)C)cc2NC(=O)Nc2ccc(OCc3ccnc(Nc4cncc(C(C)C)n4)c3)c3ccccc23)cc1 [Example 68]
8 | 42 nM | > 14000 nM | Cc1cc(F)cc(-n2nc(C(C)(C)C)cc2NC(=O)Nc2ccc(OCc3ccnc(Nc4cnc(C(=O)N5CCCC5)cn4)c3)c3ccccc23)c1 [Example 236, 1-(3-(tert-butyl)-1-(3-fluoro-5-methylphenyl)-1H-pyrazol-5-yl)-3-(4-((2-((5-(pyrrolidine-1-carbonyl)pyrazin-2-yl)amino)pyridin-4-yl)methoxy)naphthalen-1-yl)urea]
9 | 13 nM | 263 nM | COCCN(C)C(=O)c1cnc(Nc2cc(COc3ccc(NC(=O)Nc4cc(C(C)(C)C)nn4-c4cccc(C)c4)c4ccccc34)ccn2)cn1 [Example 205, 5-((4-(((4-(3-(3-(tert-butyl)-1-(m-tolyl)-1H-pyrazol-5-yl)ureido)naphthalen-1-yl)oxy)methyl)pyridin-2-yl)amino)-N-(2-methoxyethyl)-N-methylpyrazine-2-carboxamide]
10 | 19 nM | 211 nM | CCc1nc(Nc2cc(COc3ccc(NC(=O)Nc4cc(C(C)(C)C)nn4-c4ccc(C)cc4)c4ccccc34)ccn2)cnc1C [Example 143, 1-(3-(tert-butyl)-1-(p-tolyl)-1H-pyrazol-5-yl)-3-(4-((2-((6-ethyl-5-methylpyrazin-2-yl)amino)pyridin-4-yl)methoxy)naphthalen-1-yl) urea]
11 | < 0.41 nM | 41 nM | Cc1ccc(-n2nc(C(C)(C)C)cc2NC(=O)Nc2ccc(OCc3ccnc(Nc4cnc(C(=O)N5CCN(C)CC5)cn4)c3)c3ccccc23)cc1 [Example 136, 1-(3-(tert-butyl)-1-(p-tolyl)-1H-pyrazol-5-yl)-3-(4-((2-((5-(4-methylpiperazine-1-carbonyl)pyrazin-2-yl)amino)pyridin-4-yl)methoxy)naphthalen-1-yl)urea]
12 | 23 nM | 175 nM | CCc1cncc(Nc2cc(COc3ccc(NC(=O)Nc4cc(C(C)(C)C)nn4-c4cccc(COC)c4)c4ccccc34)ccn2)n1 [Example 222, 1-(3-(tert-butyl)-1-(3-(methoxymethyl)phenyl)-1H-pyrazol-5-yl)-3-(4-((2-((6-ethylpyrazin-2-yl)amino)pyridin-4-yl)methoxy)naphthalen-1-yl)urea]
13 | 6 nM | > 14100 nM | Cc1ccc(-n2nc(C(C)(C)C)cc2NC(=O)Nc2ccc(OCc3ccnc(Nc4cnc(C(=O)N5CCCCC5)cn4)c3)c3ccccc23)cc1 [Example 137, 1-(3-(tert-butyl)-1-(p-tolyl)-1H-pyrazol-5-yl)-3-(4-((2-((5-(piperidine-1-carbonyl)pyrazin-2-yl)amino)pyridin-4-yl)methoxy)naphthalen-1-yl)urea]
14 | 21 nM | 218 nM | Cc1ccc(-n2nc(C(C)(C)C)cc2NC(=O)Nc2ccc(OCc3ccnc(Nc4cnc(CN5CCOCC5)cn4)c3)c3ccccc23)cc1 [Example 263, 1-(3-(tert-butyl)-1-(p-tolyl)-1H-pyrazol-5-yl)-3-(4-((2-((5-(morpholinomethyl)pyrazin-2-yl)amino)pyridin-4-yl)methoxy)naphthalen-1-yl)urea]
15 | 29 nM | > 15200 nM | CCc1cncc(Nc2cc(COc3ccc(NC(=O)Nc4cc(C(C)(C)C)nn4-c4ccc(OC)c(C)c4)c4ccccc34)ccn2)n1 [Example 140, 1-(3-(tert-butyl)-1-(4-methoxy-3-methylphenyl)-1H-pyrazol-5-yl)-3-(4-((2-((6-ethylpyrazin-2-yl)amino)pyridin-4-yl)methoxy)naphthalen-1-yl)urea]
16 | 81 nM | 1270 nM | CCc1cncc(Nc2cc(COc3ccc(NC(=O)Nc4cc(C(C)(C)C)nn4-c4cc(C)cc(OC)c4)c4ccccc34)ccn2)n1 [Example 221, 1-(3-(tert-butyl)-1-(3-methoxy-5-methylphenyl)-1H-pyrazol-5-yl)-3-(4-((2-((6-ethylpyrazin-2-yl)amino)pyridin-4-yl)methoxy)naphthalen-1-yl)urea]
17 | 15 nM | 148 nM | COCCN(CCOC)C(=O)c1cnc(Nc2cc(COc3ccc(NC(=O)Nc4cc(C(C)(C)C)nn4-c4cccc(C)c4)c4ccccc34)ccn2)cn1 [Example 76]
18 | 23 nM | 2820 nM | CCOc1cncc(Nc2cc(COc3ccc(NC(=O)Nc4cc(C(C)(C)C)nn4-c4ccc(C)cc4)c4ccccc34)ccn2)n1 [Example 116, 1-(3-(tert-butyl)-1-(p-tolyl)-1H-pyrazol-5-yl)-3-(4-((2-((6-ethoxypyrazin-2-yl)amino)pyridin-4-yl)methoxy)naphthalen-1-yl)urea]
19 | 38 nM | > 15500 nM | CCc1cncc(Nc2cc(COc3ccc(NC(=O)Nc4cc(C(C)(C)C)nn4-c4cccc(Cl)c4)c4ccccc34)ccn2)n1 [Example 175, 1-(3-(tert-butyl)-1-(3-chlorophenyl)-1H-pyrazol-5-yl)-3-(4-((2-((6-ethylpyrazin-2-yl)amino)pyridin-4-yl)methoxy)naphthalen-1-yl)urea]
20 | 15 nM | > 14300 nM | CC(C)(C)c1cc(NC(=O)Nc2ccc(OCc3ccnc(Nc4cnc(C(=O)N5CCCC5)cn4)c3)c3ccccc23)n(-c2ccc(F)cc2)n1 [Example 215, 1-(3-(tert-butyl)-1-(4-fluoro-phenyl)-1H-pyrazol-5-yl)-3-(4-((2-((5-(pyrrolidine-1-carbonyl)pyrazin-2-yl)amino)pyridin-4-yl)methoxy)naphthalen-1-yl)urea]
21 | 17 nM | 250 nM | COCc1cnc(Nc2cc(COc3ccc(NC(=O)Nc4cc(C(C)(C)C)nn4-c4cccc(F)c4)c4ccccc34)ccn2)cn1 [Example 203, 1-(3-(tert-butyl)-1-(3-fluorophenyl)-1H-pyrazol-5-yl)-3-(4-((2-((5-(methoxymethyl)pyrazin-2-yl)amino)pyridin-4-yl)methoxy)naphthalen-1-yl) urea]
22 | 35 nM | 329 nM | COc1cccc(-n2nc(C(C)(C)C)cc2NC(=O)Nc2ccc(OCc3ccnc(Nc4cnc(C)c(C)n4)c3)c3ccccc23)c1 [Example 170, 1-(3-(tert-butyl)-1-(3-methoxyphenyl)-1H-pyrazol-5-yl)-3-(4-((2-((5,6-dimethylpyrazin-2-yl)amino)pyridin-4-yl)methoxy)naphthalen-1-yl)urea]
